# Reference: patent US8193372B2, “Phosphothiophene and phosphothiazole HCV polymerase inhibitors” (Idenix Pharmaceuticals, Inc., priority 2009, dated 2012)
# Key:
# [1] = tested on: HCV Con1 subgenomic replicon of genotype 1b (GS4.1 cells); test: microbe, parasite or virus in culture; format: cell-based, HCV genotype 1b; conditions: Hepatitis C virus; for EC50: 72 h
# [2] = tested on: Huh-7-derived cell line (Zluc) that harbors an HCV genotype 1b replicon and a luciferase reporter gene; test: microbe, parasite or virus in culture; format: cell-based; conditions: Hepatitis C virus, 72 h
# [3] = tested on: Huh-7-derived cell line (Zluc) that harbors an HCV genotype 1b replicon and a luciferase reporter gene; test: microbe, parasite or virus in culture; format: cell-based; conditions: Hepatitis C virus, 72 h; remark: listed apart in the source
# in vitro = conditions: human
# [4] = Cytotoxicity (CC50) reported with the HCV replicon ELISA assay; conditions: human
structure (smiles),measurement,setting,value
"CCOP(=O)(Nc1cc(-c2ccc(-c3cc4ncccn4n3)cc2)sc1C(=O)O)c1ccc(Cl)cc1Cl (stereo not shown) [Compound 11, 3-N-[(2,4-dichloro-phenyl)-phosphonamidateethyl ester]-5-(4-pyrazolo[1,5-a]pyrimidin-2-ylphenyl)-2-thiophenecarboxylic acid]",IC50,[1],< 0.1 µM
same,EC50,[1],< 0.1 µM
same,EC50,[2],< 0.1 µM
same,EC50,[3],0.1 to 8.3 µM
same,CC50,in vitro,> 8.3 µM
"COP(=O)(Nc1cc(-c2ccc(F)cc2)sc1C(=O)O)c1ccc(C)cc1C (stereo not shown) [Compound 21, 2-Thiophenecarboxylic acid, 3-N-[(2,4-dimethyl-phenyl)-phosphonamidatemethyl ester]-5-(4-fluorophenyl)]",IC50,[1],0.1 to 8.3 µM
same,EC50,[1],0.1 to 8.3 µM
same,EC50,[2],0.1 to 8.3 µM
same,EC50,[3],> 8.3 µM
same,CC50,in vitro,> 8.3 µM
"CCOP(=O)(Nc1cc(-c2ccc(C#Cc3cscn3)cc2)sc1C(=O)O)c1ccc(Cl)cc1Cl (stereo not shown) [Compound 24, 3-N-[(2,4-dichloro-phenyl)-phosphonamidateethyl ester]-5-(4-phenyl-ethynyl-1,3-thiazole)-2-thiophenecarboxylic acid]",IC50,[1],< 0.1 µM
same,EC50,[1],0.1 to 8.3 µM
same,EC50,[2],0.1 to 8.3 µM
same,EC50,[3],0.1 to 8.3 µM
same,CC50,in vitro,> 8.3 µM
"COP(=O)(c1ccc(C)cc1C)N(C)c1cc(-c2ccc(F)cc2)sc1C(=O)O (stereo not shown) [Compound 32, 2-Thiophenecarboxylic acid, 3-N-methyl-N-[(2,4-dimethyl-phenyl)-phosphonamidatemethyl ester]-5-(4-fluorophenyl)]",IC50,[1],0.1 to 8.3 µM
same,EC50,[1],0.1 to 8.3 µM
same,EC50,[2],0.1 to 8.3 µM
same,EC50,[3],> 8.3 µM
same,CC50,in vitro,> 8.3 µM
Cc1ccc(P(=O)(Nc2cc(-c3ccc(Cl)cc3)sc2C(=O)O)OC2CCOCC2)c(C)c1 (stereo not shown) [Compound 135],IC50,[1],< 0.1 µM
same,EC50,[1],0.1 to 8.3 µM
same,CC50 at 72 hr,[4],> 8.3 µM
CCCCOP(=O)(Nc1cc(-c2ccc(Cl)cc2)sc1C(=O)O)c1ccc(C)cc1C (stereo not shown) [Compound 137],IC50,[1],0.1 to 8.3 µM
same,EC50,[1],0.1 to 8.3 µM
same,CC50 at 72 hr,[4],> 8.3 µM
COP(=O)(Nc1cc(-c2ccc(-c3cc4ncccc4o3)cc2)sc1C(=O)O)c1ccc(C)cc1C (stereo not shown) [Compound 152],IC50,[1],< 0.1 µM
same,EC50,[1],< 0.1 µM
same,EC50,[2],< 0.1 µM
same,EC50,[3],< 0.1 µM
same,CC50,in vitro,> 8.3 µM
COP(=O)(Nc1cc(-c2ccc(-c3cc4ccccc4s3)cc2)sc1C(=O)O)c1ccc(C)cc1C (stereo not shown) [Compound 153],IC50,[1],< 0.1 µM
same,EC50,[1],< 0.1 µM
same,EC50,[2],< 0.1 µM
same,EC50,[3],0.1 to 8.3 µM
same,CC50,in vitro,> 8.3 µM
COP(=O)(Nc1cc(-c2ccc(Cl)cc2)sc1C(=O)O)c1ccc(C)cc1C (stereo not shown) [Compound 155],IC50,[1],< 0.1 µM
same,EC50,[1],0.1 to 8.3 µM
same,EC50,[2],0.1 to 8.3 µM
same,EC50,[3],> 8.3 µM
same,CC50,in vitro,> 8.3 µM
COP(=O)(Nc1cc(-c2ccc(C(C)(C)C)cc2)sc1C(=O)O)c1ccc(C)cc1C (stereo not shown) [Compound 156],IC50,[1],0.1 to 8.3 µM
same,EC50,[1],0.1 to 8.3 µM
same,EC50,[2],0.1 to 8.3 µM
same,EC50,[3],> 8.3 µM
same,CC50,in vitro,> 8.3 µM
CCOP(=O)(Nc1cc(-c2ccc(-c3cc4ncccc4o3)cc2)sc1C(=O)O)c1ccc(Cl)cc1F (stereo not shown) [Compound 160],IC50,[1],< 0.1 µM
same,EC50,[1],< 0.1 µM
same,EC50,[2],< 0.1 µM
same,EC50,[3],0.1 to 8.3 µM
same,CC50,in vitro,> 8.3 µM
COP(=O)(Nc1cc(-c2ccccc2)sc1C(=O)O)c1ccc(C)cc1C (stereo not shown) [Compound 162],EC50,[2],0.1 to 8.3 µM
same,EC50,[3],> 8.3 µM
COP(=O)(Nc1cc(-c2ccc(-c3cc4ncccn4n3)cc2)sc1C(=O)O)c1ccc(C)cc1C (stereo not shown) [Compound 169],EC50,[2],< 0.1 µM
same,EC50,[3],< 0.1 µM
COC(=O)c1sc(-c2ccc(F)cc2)cc1NP(=O)(OC(C)C)c1ccc(C)cc1C (stereo not shown) [Compound 171],IC50,[1],> 8.3 µM
same,EC50,[1],> 8.3 µM
same,CC50 at 72 hr,[4],> 8.3 µM
